Structures can show the parent of a compound that is named as a salt. Where two headings read alike, the source gives them in different places.
Assays:
HepG2 cells = test: Increase in LDL-binding to HepG2 cells; format: cell-based; details: 10 μM test compound, 20 hours, specific human [125I]LDL binding, normalized by protein, read-out: LDL binding (% of control)
Protocol: Increase in LDL-binding to HepG2 cells LDL-binding was measured according to the method of J. L. Goldstein. HepG2 cells were purchased from ATCC (American type culture collection) and seeded in 6-well plate with collagen coating (Sumitomo Bakelite), and cultured in Eagle's minimum essential medium (MEM) containing 10%-fetal bovine serum at 37° C. for 4 days. […] After washing with phosphate buffered saline cells were incubated with MEM containing 25 mM-HEPES and 1%-bovine serum albumin (fatty acid free) in the presence of human [^125 I]LDL (4 μg/ml) at 6° C. for 2 hours. After washing cells bound [^125 I]LDL was dissociated with dextran sulfate and the radioactivity was measured (total binding). [^125 I]LDL binding to cells was also measured in the presence of LDL (300 μg/ml) as a non-specific binding (NSB). Specific [^125 I]LDL-binding was calculated by subtracting NSB from total binding and was normalized by protein content measured by the method of lowry. Data was expressed as percentage of the control.

Golden Syrian hamsters = test: Cholesterol lowering activity in Golden hamster; format: in vivo, Golden Syrian hamster; details: Mesocricetus auratus, po, 96 h, 20 mg/kg/d orally, once daily for 4 days
Protocol: Cholesterol lowering activity in Golden hamster Male Golden Syrian hamsters (110-130 g) were maintained freely on water and a laboratory diet (CE-2, Clea Japan Inc., Tokyo). […] Blood was taken from orbital sinus and plasma total cholesterol and triglyceride were measured an automatic analyzer (Hitachi 7070, Hitachi Ltd., Tokyo) using commercial kits (Wako Pure Chemical Industries, Osaka), and plasma HDL-cholesterol using a commercial kit (Kyowa Medex Co., Ltd., Tokyo) before and after the treatment of compound. Non-HDL cholesterol was calculated by subtracting HDL-cholesterol from total cholesterol. |Non-HDL-C (non-HDL-cholesterol): [total cholesterol]-[HDL-cholesterol] |TG: triglyceride

Wistar fatty rats = test: Lipid-lowering effect in Wistar fatty rats; format: in vivo, Wistar fatty rat; details: 30 mg/kg/day by stomach tube, 2 weeks, plasma, Mean ± SD (n = 6)
Protocol: Lipid-lowering effect in Wistar fatty rats
Male Waistar fatty rats were maintained on free access to normal diet (CE-2, Clea Japan) and water. Body weights were measured at 10 weeks of age and the blood was taken from the orbital sinus and determined for plasma total cholesterol (TC), triglyceride (TG), glucose, and HDL-cholesterol (HDL-C) with Wako Pure Chemical and Kyowa Medex kits using an automatic analyzer (Hitachi 7070). Non-HDL-cholesterol (non-HDL-C) was calculated by subtracting HDL-cholesterol from total cholesterol.
The rats were divided into 2 groups (n=6) and 30 mg/kg/day of the test compound (Example 22) in 0.5% methylcellulose solution was administered by a stomach tube to one of the groups once daily for 2 weeks (test group). 0.5% Methylcellulose solution only was similarly administered to the other group (control group). On day 14, body weights were measured again and the blood was taken from the orbital sinus and determined for plasma total cholesterol, HDL-cholesterol, triglyceride, and glucose in the same manner as before.

[1] = plasma triglyceride, read-out: TG (% of control)
[2] = plasma, [total cholesterol]-[HDL-cholesterol], read-out: Non-HDL-C (% of control)

SMILES	activity at 10 µM (HepG2 cells)	response vs control in vivo at 20 mg/kg (Golden Syrian hamsters; [1])	response vs control in vivo at 20 mg/kg (Golden Syrian hamsters; [2])	TG (Wistar fatty rats; * P < 0.05 vs control group (324.7 ± 74.2))	Glucose (Wistar fatty rats; * P < 0.05 vs control group (366.8 ± 72.0))	Non-HDL-C (Wistar fatty rats; ** P < 0.01 vs control group (39.9 ± 3.7))
O=C(NCC1CCN(CCCc2ccccc2)CC1)C1=Cc2cnc3cccc(n23)S1 [Example 22, N-[1-(3-phenylpropan-1-yl)piperidin-4-ylmethyl]-5-thia-1,8b-diazaacenaphthylene-4-carboxamide Dihydrochloride]	126%	62.3%	58.8%	258.3 ± 38.4 mg/dL	268.2 ± 81.9 mg/dL	30.0 ± 5.2 mg/dL
O=C(NCC1CCN(CCCc2ccc(F)cc2F)CC1)C1=Cc2cnc3cccc(n23)S1 [Example 76, N-[1-(3-(2,4-difluorophenyl)propan-1-yl)piperidin-4-ylmethyl]-5-thia-1,8b-diazaacenaphthylene-4-carboxamide Dihydrochloride]	282%	58.1%	74%			
